Legend:
[1] = test system: THP1 cells; test: IFN-β secretion in THP1 cell culture (5 h); assay type: cell-based, human; settings: cGAMP at 30 uM set at 100%
Procedure: IFN-β secretion in THP1 cell culture (5 h)
The ability of compounds to stimulate the secretion of interferon-beta from THP1 cells was measured using a human IFN-0 AlphaLISA kit (Perkin Elmer, Cat. No. AL265F). The basic protocol is as follows:
A Labcyte Echo 550 acoustic dispenser was used to transfer 120 nL of compound dissolved in DMSO into the wells of an empty, sterile 384-well microplate, (Corning, Cat. No. 3712). THP1 cells (American Type Culture Collection, Cat. No. TIB202) previously frozen in Recovery Medium (Life Technologies, Cat. No. 12648-010) were thawed and immediately diluted 10-fold into 37° C. assay medium (RPMI 1640+L-Glutamine & phenol red, Life Technologies, Cat. No. 11875-085; 0.5% heat inactivated fetal bovine serum, Sigma Aldrich, Cat. No. F4135; 1 mM Sodium Pyruvate, Life Technologies, Cat. No. 11360-070; 1× non-essential amino acids; Life Technologies, Cat. No. 11140-050). The cell viability and count was ascertained using a Beckman Coulter V-Cell XR cell counter. The cell suspension was centrifuged at 200×g for 5 min at RT. Cells were resuspended to a density of 0.8×10^6/mL in 37° C. assay medium. Subsequent liquid transfers were performed using either a Matrix electronic multichannel pipette or an Agilent Bravo Automated Liquid Handling Platform. The assay was started by dispensing 40 μL of the previously prepared cell suspension into the wells of the plate containing compounds. After 5 h incubation at 37° C., 5% CO2 in a humidified atmosphere, the plate of cells and compounds was centrifuged at 200×g for 5 min at RT. From each well, 5 μL of supernatant was transferred into corresponding wells of a white 384-well plate (Perkin Elmer, Cat. No. 6005620). To these supernatant-containing wells was added 10 μL of 5× Anti-Analyte Acceptor beads (50 μg/mL of AlphaLISA HiBlock Buffer) and incubated for 30 min at RT while shaking on an orbital plate shaker. To each well was added 10 μL of 5× Biotinylated Antibody Anti-analyte (5 nM in AlphaLISA HiBlock Buffer) and incubated on an orbital plate shaker for 60 min at RT or overnight at 4° C. To each well was added 25 μL of 2×SA-Donor beads (80 μg/mL in AlphaLISA HiBlock Buffer) and incubated for 30-45 min at RT in the dark while shaking on an orbital plate shaker. The plate was then read on a Perkin Elmer Envision (λex=680 nm, […]). The percent effect of the AlphaLISA signal at each compound concentration was calculated based on 30 uM cGAMP positive controls and 0.3% DMSO negative controls. The plot of percent effect versus the log of compound concentration was fit with a 4-parameter concentration response equation to calculate EC50 values. The test compounds were tested at concentrations 30000, 10000, 3333, 1111, 370.4, 123.4, 41.2, 13.7, 4.6, and 1.5 nM with 0.3% residual DMSO. The control compound, cGAMP was tested at concentrations 100000, 33333, 11111, 3704, 1235, 412, 137, 46, and 15 nM with 0.3% residual DMSO.
Compounds of the disclosure were evaluated for IFN-β secretion in THP1 cell culture as described above. The following table tabulates the biological data for these compounds as percent activation relative to 2′3′-cGAMP at the 30 μM concentration.

[2] = target: T1, full-length HAQ STING (Homo sapiens, UniProt Q86WV6, G230A/H232R/R293Q/R71H); test: 3H-cGAMP filtration binding assay (HAQ STING); settings: competition with tritiated cGAMP ligand, HAQ STING membrane
T1 construct: Full-Length HAQ STING [STING(1-379)R71H, G230A, H232R,; made in house; host or cells: Trichoplusia ni (Hi-Five) insect cells infected with baculovirus; washed membranes were used
Text: The ability of compounds to bind STING is quantified by the ability to compete with tritiated cGAMP ligand for human STING receptor membrane using a radioactive filter-binding assay. The binding assay employs STING receptor obtained from Hi-Five cell membranes overexpressing full-length HAQ STING prepared in-house and tritiated cGAMP ligand also purified in-house.
The ability of compounds to bind STING is quantified by their ability to compete with tritiated cGAMP ligand for human STING receptor membrane using a radioactive filter-binding assay. The binding assay employs STING receptor obtained from Trichoplusia ni cell membranes (T.ni; Expression Systems, cat #94-002F, www.expressionsystems.com) overexpressing full-length HAQ STING and tritiated cGAMP ligand.
The basic HAQ STING filtration assay protocol is as follows:
Compound and membrane then preincubated for 60 min at RT to allow compound binding to equilibrate. Following equilibration, 8 nM of [^3H]c-GAMP ligand was prepared by diluting into assay buffer, and 50 uL of this working stock was then manually added to each well of the assay plate. […] The filter plates were then dried at 55° C. for 30 min using a pressurized oven before 30 uL of ULTIMA GOLD F scintillate was added to each well. Tritium levels for each reaction well were then measured using a PerkinElmer TopCount plate reader.
After normalization to controls, the percent activity for each compound concentration was calculated by measuring the amount of remaining radioactivity. The plot of percent activity versus the log of compound concentration was fit with a 4-parameter dose response equation to calculate EC50 values.

T1 sequence (Q86WV6 with tags, fused parts or gaps R71H/G230A/H232R/R293Q): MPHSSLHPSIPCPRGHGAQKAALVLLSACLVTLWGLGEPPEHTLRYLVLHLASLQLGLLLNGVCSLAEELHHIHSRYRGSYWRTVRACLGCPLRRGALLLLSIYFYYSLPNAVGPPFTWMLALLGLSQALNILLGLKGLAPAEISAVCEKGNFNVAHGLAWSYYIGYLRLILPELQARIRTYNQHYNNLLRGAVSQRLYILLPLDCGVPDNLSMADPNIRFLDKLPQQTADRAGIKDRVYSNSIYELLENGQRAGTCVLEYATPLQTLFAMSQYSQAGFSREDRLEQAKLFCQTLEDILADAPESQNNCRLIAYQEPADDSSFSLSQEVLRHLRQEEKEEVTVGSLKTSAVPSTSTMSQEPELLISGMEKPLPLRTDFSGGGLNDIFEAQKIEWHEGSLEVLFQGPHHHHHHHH

| Compound | % Effect at 30 μM relative to 2′3′-cGAMP [1] [%] | EC50 [2] [nM] |
| --- | --- | --- |
| Nc1nc2c(ncn2[C@@H]2O[C@@H]3COP(=O)(S)O[C@@H]4[C@H](F)[C@H](n5cnc6c(N)ncnc65)O[C@@H]4COP(=O)(S)O[C@@H]2C3)c(=O)[nH]1 (single isomer, unassigned) [Example 7] | 118 | 2.35 |
| Nc1nc2c(ncn2[C@@H]2O[C@@H]3COP(=O)(S)O[C@@H]4[C@H](F)[C@H](n5cnc6c(N)ncnc65)O[C@@H]4COP(=O)(S)O[C@@H]2C3)c(=O)[nH]1 (single isomer, unassigned) [Example 6] | 61 | 48.6 |
| Nc1nc2c(ncn2[C@@H]2O[C@@H]3COP(=O)(S)O[C@@H]4C[C@H](n5cnc6c(N)ncnc65)O[C@@H]4COP(=O)(S)O[C@@H]2[C@@H]3F)c(=O)[nH]1 (single isomer, unassigned) [Example 1] | 112 |  |
| Nc1ncnc2c1ncn2[C@@H]1O[C@@H]2COP(=O)(S)O[C@@H]3[C@H](O)[C@@H](COP(=O)(S)O[C@@H]2[C@H]1O)O[C@H]3n1ccc(=O)n2ccnc12 (single isomer, unassigned) [Example 4] | 30 | 3690 |
| Nc1ncnc2c1ncn2[C@@H]1O[C@@H]2COP(=O)(S)O[C@@H]3[C@H](O)[C@@H](COP(=O)(S)O[C@@H]2[C@H]1O)O[C@H]3n1ccc(=O)n2ccnc12 (single isomer, unassigned) [Example 5] | 62 | 4410 |
| Nc1nc2c(ncn2[C@@H]2O[C@@H]3COP(=O)(S)O[C@@H]4C[C@H](n5cnc6c(N)ncnc65)O[C@@H]4COP(=O)(S)O[C@@H]2[C@@H]3F)c(=O)[nH]1 (single isomer, unassigned) [Example 2] | 114 |  |
| Nc1nc2c(ncn2[C@@H]2O[C@@H]3COP(=O)(S)O[C@@H]4[C@@H](O)[C@H](n5cnc6c(N)ncnc65)O[C@@H]4COP(=O)(S)O[C@@H]2C3)c(=O)[nH]1 (stereo partly drawn) [Example 3, 2-amino-9-[(5S,7R,8R,12aR,14R,15R,15aR)-14-(6-amino-9H-purin-9-yl)-15-hydroxy-2,10-dioxido-2,10-disulfanyloctahydro-12H-5,8-methanofuro[3,2-l][1,3,6,9,11,2,10]penta-oxadiphosphacyclotetradecin-7-yl]-1,9-dihydro-6H-purin-6-one] | 63 |  |

From patent US20220033435A1, “Cyclic Di-Nucleotide Compounds as STING Agonists” (Merck Sharp & Dohme Corp., priority 2018, published 2022)
